The values that follow come from US10071957B2, “N-substituted benzamides and methods of use thereof” (GENENTECH, INC., priority 2012, dated 2018).

The target of the assay is hNaV1.7 (Homo sapiens (Human), UniProt Q15858). The experiment in a line: Competitive binding of tritiated compound to membranes from cells expressing hNav1.7 and the β1 subunit. The conditions noted are these: 100 pM [3H]compound, 18 h, room temperature; read-out: NaV1.7 395 Membrane Binding IC50. How it is done: Tritiated compound binding to membranes isolated from cells that heterologously express hNav1.7 and the β1 subunit
Chain of hNaV1.7 (Q15858 whole entry, looked up): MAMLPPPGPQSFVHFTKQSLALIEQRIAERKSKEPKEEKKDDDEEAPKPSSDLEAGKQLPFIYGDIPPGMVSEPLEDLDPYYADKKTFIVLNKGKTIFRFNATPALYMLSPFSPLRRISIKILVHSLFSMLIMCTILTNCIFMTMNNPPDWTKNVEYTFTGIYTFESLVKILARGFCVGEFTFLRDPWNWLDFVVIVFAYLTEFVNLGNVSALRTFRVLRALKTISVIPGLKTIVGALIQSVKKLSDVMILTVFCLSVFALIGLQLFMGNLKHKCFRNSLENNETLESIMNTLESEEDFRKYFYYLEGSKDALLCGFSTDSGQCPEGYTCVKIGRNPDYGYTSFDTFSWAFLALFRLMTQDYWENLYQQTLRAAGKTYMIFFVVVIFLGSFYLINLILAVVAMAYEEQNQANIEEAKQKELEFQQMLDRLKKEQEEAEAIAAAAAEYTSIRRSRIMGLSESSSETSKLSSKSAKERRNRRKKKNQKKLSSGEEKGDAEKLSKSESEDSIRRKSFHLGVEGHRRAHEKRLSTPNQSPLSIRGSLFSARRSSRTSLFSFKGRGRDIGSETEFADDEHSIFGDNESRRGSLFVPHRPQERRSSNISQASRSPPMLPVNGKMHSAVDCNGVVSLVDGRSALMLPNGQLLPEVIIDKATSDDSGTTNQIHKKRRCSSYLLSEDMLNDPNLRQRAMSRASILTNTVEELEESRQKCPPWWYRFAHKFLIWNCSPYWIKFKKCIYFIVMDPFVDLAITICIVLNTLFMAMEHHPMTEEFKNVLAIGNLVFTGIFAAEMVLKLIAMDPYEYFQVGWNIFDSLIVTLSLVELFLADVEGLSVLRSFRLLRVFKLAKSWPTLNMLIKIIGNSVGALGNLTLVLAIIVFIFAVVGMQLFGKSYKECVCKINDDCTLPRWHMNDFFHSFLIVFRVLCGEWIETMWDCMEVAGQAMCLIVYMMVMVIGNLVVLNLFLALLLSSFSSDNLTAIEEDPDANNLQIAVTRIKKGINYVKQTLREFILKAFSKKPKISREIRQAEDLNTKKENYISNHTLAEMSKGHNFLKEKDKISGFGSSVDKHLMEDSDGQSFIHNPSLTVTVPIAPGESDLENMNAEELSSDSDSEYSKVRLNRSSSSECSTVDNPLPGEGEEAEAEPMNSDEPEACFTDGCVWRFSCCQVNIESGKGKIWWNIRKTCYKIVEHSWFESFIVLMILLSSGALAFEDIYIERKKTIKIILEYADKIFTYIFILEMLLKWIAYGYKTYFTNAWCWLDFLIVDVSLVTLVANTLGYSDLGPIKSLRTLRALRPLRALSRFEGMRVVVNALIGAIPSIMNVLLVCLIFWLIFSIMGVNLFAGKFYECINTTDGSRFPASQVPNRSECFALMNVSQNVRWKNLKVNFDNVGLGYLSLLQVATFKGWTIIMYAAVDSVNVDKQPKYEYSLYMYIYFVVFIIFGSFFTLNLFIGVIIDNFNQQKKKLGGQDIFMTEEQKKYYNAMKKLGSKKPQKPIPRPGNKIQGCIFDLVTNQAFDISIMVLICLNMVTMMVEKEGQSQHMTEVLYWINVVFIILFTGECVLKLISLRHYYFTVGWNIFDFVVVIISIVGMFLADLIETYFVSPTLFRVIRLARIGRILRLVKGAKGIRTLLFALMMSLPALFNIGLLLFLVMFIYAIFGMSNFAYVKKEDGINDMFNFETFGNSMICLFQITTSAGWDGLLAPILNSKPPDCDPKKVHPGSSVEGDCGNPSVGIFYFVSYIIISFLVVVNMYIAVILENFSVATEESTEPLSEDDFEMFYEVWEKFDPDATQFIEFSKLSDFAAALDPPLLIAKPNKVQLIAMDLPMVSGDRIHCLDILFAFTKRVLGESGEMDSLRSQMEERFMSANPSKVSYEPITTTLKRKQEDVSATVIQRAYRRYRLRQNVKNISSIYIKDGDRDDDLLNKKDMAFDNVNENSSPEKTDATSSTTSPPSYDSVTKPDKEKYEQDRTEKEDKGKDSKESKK
Chain of hNaV1.7 (Q07699 whole entry partner, looked up): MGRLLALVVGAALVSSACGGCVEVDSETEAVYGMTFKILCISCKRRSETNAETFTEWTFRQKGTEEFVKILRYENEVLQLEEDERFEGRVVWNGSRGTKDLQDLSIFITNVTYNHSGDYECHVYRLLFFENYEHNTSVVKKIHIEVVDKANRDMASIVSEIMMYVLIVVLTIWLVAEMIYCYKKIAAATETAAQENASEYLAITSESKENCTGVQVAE
Preparation of membranes containing recombinantly expressed sodium channels: Frozen recombinant cell pellets were thawed on ice and diluted to 4 times the cell pellet weight with ice cold 50 mM Tris HCl, pH 7.4 buffer. The cell suspensions were homogenized on ice using a motorized glass dounce homogeniser. Homogenates were further diluted 8.4 times with ice cold 50 mM Tris HCl, pH 7.4 buffer and then centrifuged at 200×g at 4° C. for 15 min. The supernatants were collected and centrifuged at 10000×g at 4° C. for 50 min. The pellets were then re-suspended in 100 mM NaCl, 20 mM Tris HCl, pH 7.4 buffer containing 1% v/v protease inhibitors (Calbiochem) and re-homogenized on ice. The homogenized membranes were then processed through a syringe equipped with a 26 gauge needle. Protein concentrations were determined by Bradford Assay and the membranes were stored at −80° C.
Radioligand Binding Studies: Saturation experiments. A representative compound of formula (I) was tritiated. Three tritiums were incorporated in place of methyl hydrogens to generate [^3H]compound. Binding of this radioligand was performed in 5 mL borosilicate glass test tubes at room temperature. Binding was initiated by adding membranes to increasing concentrations of [^3H]compound in 100 mM NaCl, 20 mM Tris HCl, pH 7.4 buffer containing 0.01% w/v bovine serum albumin (BSA) for 18 h. Non-specific binding was determined in the presence of 1 μM unlabelled compound. After 18 h, the reactants were filtered through GF/C glass fiber filters presoaked in 0.5% w/v polyethylene imine. Filters were washed with 15 mL ice cold 100 mM NaCl, 20 mM Tris HCl, pH 7.4 buffer containing 0.25% BSA to separate bound from free ligand. [^3H]compound bound to filters was quantified by liquid scintillation counting.
Competitive binding experiments. Binding reactions were performed in 96-well polypropylene plates at room temperature for 18 h. In 360 μL, membranes were incubated with 100 pM [^3H]compound and increasing concentrations of Test Compound. Non-specific binding was defined in the presence of 1 μM unlabelled compound. Reactions were transferred and filtered through 96-well glass fiber/C filter plates presoaked with 0.5% polyethylene imine. The filtered reactions were washed 5 times with 200 μL ice cold buffer containing 0.25% BSA. Bound radioactivity was determined by liquid scintillation counting.
Data Analysis: For saturation experiments, non-specific binding was subtracted from total binding to provide specific binding and these values were recalculated in terms of pmol ligand bound per mg protein. Saturation curves were constructed and dissociation constants were calculated using the single site ligand binding model: Beq=(Bmax*X)/(X+Kd), where Beq is the amount of ligand bound at equilibrium, Bmax is the maximum receptor density, Kd is the dissociation constant for the ligand, and X is the free ligand concentration. For competition studies percent inhibition was determined and IC50 values were calculated using a 4 parameter logistic model (% inhibition=(A+((B−A)/(1+((x/C)^D)))) using XLfit, where A and B are the maximal and minimum inhibition respectively, C is the IC50 concentration and D is the (Hill) slope.
Consider `CCCCN(CCCC)S(=O)(=O)NC(=O)c1cc(Cl)c(Oc2cnc(OCC(C)C)c(Cl)c2)cc1F` [Preparation 13, 5-chloro-4-((5-chloro-6-isobutoxypyridin-3-yl)oxy)-N-(N,N-dibutylsulfamoyl)-2-fluorobenzamide], for which the concentration for half-maximal inhibition (IC50) came out at 3640 nM.
Consider `CC(C)COc1ncc(Oc2cc(F)c(C(=O)NS(=O)(=O)NCc3ccccc3)cc2Cl)cc1Cl` [Preparation 18, N-(N-benzyl-sulfamoyl)-5-chloro-4-((5-chloro-6-isobutoxy-pyridin-3-yl)oxy)-2-fluorobenzamide], for which the IC50 came out at 4180 nM.
On to `CC(C)COc1ncc(Oc2cc(F)c(C(=O)NS(=O)(=O)N(C)Cc3ccccc3)cc2Cl)cc1Cl` [Preparation 19, N-(N-benzyl-N-methylsulfamoyl)-5-chloro-4-((5-chloro-6-isobutoxypyridin-3-yl)oxy)-2-fluoro-benzamide], for which the IC50 was found to be 4440 nM.
Turning to `CC(C)COc1ncc(Oc2cc(F)c(C(=O)NS(=O)(=O)NCc3cccnc3)cc2Cl)cc1Cl` [Preparation 22, 5-chloro-4-((5-chloro-6-isobutoxypyridin-3-yl)oxy)-2-fluoro-N-(N-(pyridin-3-ylmethyl)sulfamoyl) benzamide 2,2,2-trifluoroacetate], the IC50 was 3580 nM.
Then `CC(C)COc1ncc(Oc2cc(F)c(C(=O)NS(=O)(=O)NC(=O)OC(C)(C)C)cc2Cl)cc1Cl` [Preparation 29, tert-butyl N-(5-chloro-4-((5-chloro-6-isobutoxy-pyridin-3-yl)oxy)-2-fluorobenzoyl) sulfamoylcarbamate], with 905 nM; and `CN(C)S(=O)(=O)NC(=O)c1cc(F)c(Oc2ccc(OC(F)(F)F)c(Cl)c2)cc1F` [Preparation 31, 4-(3-chloro-4-(tri-fluoromethoxy)phenoxy)-N-(N,N-dimethylsulfamoyl)-2,5-difluoro-benzamide], with 860 nM.
`CNS(=O)(=O)NC(=O)c1cc(Cl)c(Oc2cnc(OCC(F)(F)C(F)F)c(Cl)c2)cc1F` [Preparation 33, 5-chloro-4-((5-chloro-6-(2,2,3,3-tetrafluoro-propoxy)pyridin-3-yl)oxy)-2-fluoro-N-(N-methylsulfamoyl) benzamide]: the IC50 stood at 22.8 nM.
For the compound `NS(=O)(=O)NC(=O)c1cc(Cl)c(Oc2cnc(Cl)c(Cl)c2)cc1F` [Preparation 34, 5-chloro-4-((5,6-dichloropyridin-3-yl)oxy)-2-fluoro-N-sulfamoylbenzamide], the IC50 came out at 4680 nM.
Then `CN(C)S(=O)(=O)NC(=O)c1cc(Cl)c(Oc2cnc(Cl)c(Cl)c2)cc1F` [Preparation 35, 5-chloro-4-((5,6-dichloropyridin-3-yl)oxy)-N-(N,N-dimethylsulfamoyl)-2-fluorobenzamide], with 665 nM; and `NS(=O)(=O)NC(=O)c1cc(Cl)c(COc2cnc(OCC(F)(F)C(F)F)c(Cl)c2)cc1F` [Preparation 36, 5-chloro-4-(((5-chloro-6-(2,2,3,3-tetrafluoropropoxy)pyridin-3-yl)oxy)methyl)-2-fluoro-N-sulfamoylbenzamide], with 460 nM; and `NS(=O)(=O)NC(=O)c1cc(Cl)c(Oc2cnc(OCC(F)(F)C(F)F)c(Cl)c2)cc1F` [Preparation 37, 5-chloro-4-((5-chloro-6-(2,2,3,3-tetrafluoro-propoxy)pyridin-3-yl)oxy)-2-fluoro-N-sulfamoylbenzamide], with 171 nM.
Consider `CNS(=O)(=O)NC(=O)c1cc(Cl)c(Oc2cnc(Cl)c(Cl)c2)cc1F` [Preparation 38, 5-chloro-4-((5,6-dichloropyridin-3-yl)oxy)-2-fluoro-N-(N-methyl-sulfamoyl)benzamide], for which the IC50 was 628 nM.
Next, `CN(C)S(=O)(=O)NC(=O)c1cc(Cl)c(COc2cnc(OCC(F)(F)C(F)F)c(Cl)c2)cc1F` [Preparation 39, 5-chloro-4-(((5-chloro-6-(2,2,3,3-tetrafluoro-propoxy)pyridin-3-yl)oxy)methyl)-N-(N,N-dimethyl-sulfamoyl)-2-fluoro-benzamide]: 216 nM; `CC(C)COc1ncc(Oc2cc(F)c(C(=O)NS(=O)(=O)N(C)C)cc2Cl)cc1C(F)(F)F` [Preparation 40, 5-chloro-N-(N,N-dimethylsulfamoyl)-2-fluoro-4-((6-iso-butoxy-5-(trifluoro-methyl)pyridin-3-yl)oxy)benzamide]: 71 nM.
Next, `CC(C)COc1ncc(Oc2cc(F)c(C(=O)NS(=O)(=O)N3CCN(C(=O)OC(C)(C)C)CC3)cc2Cl)cc1Cl` [Preparation 41, tert-butyl 4-(N-(5-chloro-4-((5-chloro-6-isobutoxy-pyridin-3-yl)oxy)-2-fluorobenzoyl)sulfamoyl)piperazine-1-carboxylate]: 3800 nM.
Then `CC(C)COc1ncc(Oc2cc(F)c(C(=O)NS(=O)(=O)N3CCNCC3)cc2Cl)cc1Cl` [Preparation 42, 5-chloro-4-((5-chloro-6-isobutoxypyridin-3-yl)oxy)-2-fluoro-N-(piperazin-1-ylsulfonyl)benzamide], with 856 nM; and `CN(C)S(=O)(=O)NC(=O)c1cc(Cl)c(Oc2ccc(C#N)cc2)cc1F` [Preparation 43, 5-chloro-4-(4-cyano-phenoxy)-N-(N,N-dimethylsulfamoyl)-2-fluorobenzamide], with 10000 nM; and `CN(C)S(=O)(=O)NC(=O)c1cc(Cl)c(Oc2ccc(-c3nccs3)cc2)cc1F` [Preparation 44, 5-chloro-N-(N,N-dimethylsulfamoyl)-2-fluoro-4-(4-(thiazol-2-yl)phenoxy) benzamide], with 869 nM.
Consider `O=C(NS(=O)(=O)NC1CCC1)c1cc(Cl)c(Oc2ccc(OC(F)(F)F)c(Cl)c2)cc1F` [Preparation 45, 5-chloro-4-(3-chloro-4-(trifluoromethoxy)phenoxy)-N-(N-cyclobutylsulfamoyl)-2-fluorobenzamide], for which the IC50 was found to be 108 nM.
Next, `CC(C)COc1ncc(Oc2cc(F)c(C(=O)NS(=O)(=O)N3CCC3)cc2Cl)cc1Cl` [Preparation 46, N-(azetidin-1-ylsulfonyl)-5-chloro-4-((5-chloro-6-iso-butoxypyridin-3-yl)oxy)-2-fluorobenzamide]: 9.2 nM; `CN(C)S(=O)(=O)NC(=O)c1cc(Cl)c(Oc2ccc3ccccc3c2)cc1F` [Preparation 47, 5-chloro-N-(N,N-dimethylsulfamoyl)-2-fluoro-4-(naphthalen-2-yloxy)benzamide]: 4070 nM; `NS(=O)(=O)NC(=O)c1cc(Cl)c(Oc2ccc3ccccc3c2)cc1F` [Preparation 48, 5-chloro-2-fluoro-4-(naphthalen-2-yloxy)-N-sulfamoyl-benzamide]: 138 nM.
Then `CN(C)S(=O)(=O)NC(=O)c1cc(Cl)c(Oc2ccc(F)c(F)c2)cc1F` [Preparation 49, 5-chloro-4-(3,4-difluorophenoxy)-N-(N,N-dimethyl-sulfamoyl)-2-fluorobenzamide], with 3470 nM; and `NS(=O)(=O)NC(=O)c1cc(Cl)c(Oc2ccc(F)c(F)c2)cc1F` [Preparation 50, 5-chloro-4-(3,4-difluorophenoxy)-2-fluoro-N-sulfamoylbenzamide], with 656 nM.
Then `CN(C)S(=O)(=O)NC(=O)c1cc(Cl)c(Oc2cccc3ccccc23)cc1F` [Preparation 52, 5-chloro-N-(N,N-dimethylsulfamoyl)-2-fluoro-4-(naphthalen-1-yloxy)benzamide], with 5200 nM; and `NS(=O)(=O)NC(=O)c1cc(Cl)c(Oc2cccc3ccccc23)cc1F` [Preparation 53, 5-chloro-2-fluoro-4-(naphthalen-1-yloxy)-N-sulfamoylbenzamide], with 23000 nM.
In the case of `CN(C)S(=O)(=O)NC(=O)c1cc(Cl)c(Oc2cccc3[nH]ccc23)cc1F` [Preparation 55, 4-((1H-indol-4-yl)oxy)-5-chloro-N-(N,N-dimethyl-sulfamoyl)-2-fluoro-benzamide], the IC50 was found to be 20000 nM.
Next, `CN(C)S(=O)(=O)NC(=O)c1cc(Cl)c(Oc2ccc3cc[nH]c3c2)cc1F` [Preparation 56, 4-((1H-indol-6-yl)oxy)-5-chloro-N-(N,N-dimethyl-sulfamoyl)-2-fluoro-benzamide]: 990 nM.
